Literature values, collected in patent US12297168B2, “Compounds useful for treating liver diseases” (ABIONYX PHARMA SA, priority 2019, dated 2025).

Tested on: NASH resolution without worsening of fibrosis
Settings: Phase 3 trial, adults with NASH and fibrosis (interim analysis, RESOLVE-IT)

CSc1ccc(C(=O)/C=C/c2cc(C)c(OC(C)(C)C(=O)O)c(C)c2)cc1 [elafibranor]
effect on the primary endpoint of NASH resolution without worsening of fibrosis: did not demonstrate a statistically significant effect
